Read-outs that look alike come from different tables or passages of the source.

Here are results for 24 compounds from US10544140B2, “Pharmaceutical composition containing, as active ingredient, 7-azaindolin-2-one derivative or pharmaceutically acceptable salt thereof” (LG CHEM, LTD., priority 2015, dated 2020).

For experiment [1], the system named is MCF-7 (human breast cancer cell line). Description: Cytotoxicity test by MTT assay, MCF-7. The note with it: Homo sapiens, read-out: Cell viability (% inhibition). The class given is cell-based. How it is done: (§1) A cytotoxicity test was measured by MTT assay. Each cell line was cultured in a 96-well plate at a density of 1×10^4 cells/well. […] MTT (3-(4,5-dimethylthiazol-2-yl)-2,5-diphenyltetrazolium bromide) solution (5 mg/mL) was added to each well and reacted for 4 hours in an incubator. […] After reacting in an incubator for 30 minutes, the formation of formazan was quantified using a microplate reader at an absorbance of 540 nm. […] At this time, sunitinib was used as a control group. […] The human cancer cell lines used herein are MCF-7 (breast cancer), MDA-MB-231 (breast cancer), HT-29 (colon cancer), DU145 (prostate cancer), U937 (myeloid leukemia), A549 (lung cancer), PANC-1 (pancreatic cancer) and MIA PaCa-2 (pancreatic cancer).

Experiment [2] has as its system PANC-1 (human pancreatic cancer cell line). Kind of experiment: Cytotoxicity test by MTT assay, PANC-1. The note with it: Homo sapiens, read-out: Cell viability (% inhibition). Format: cell-based. How it is done: as §1
In general terms: Tetrazolium assays rely on reduction of a dye to a coloured formazan, in cell work by metabolically active cells.

For the compound `CCC(/C=C1\C(=O)Nc2nc(C)c(O)c(C)c21)CC` [Compound I-02, (Z)-3-(2-Ethylbutylidene)-5-hydroxy-4,6-dimethyl-1H-pyrrolo[2,3-b]pyridin-2(3H)-one], the cytotoxicity at 30 µM in experiment [1] (MCF7, MCF-7, 30 μM, 48 h) came out at 30.5%; in experiment [2] (PANC-1, 30 μM, 48 h), 44.9%.

With `CC(C)=C/C=C1\C(=O)Nc2nc(C)c(O)c(C)c21` [Compound I-03, (Z)-5-Hydroxy-4,6-dimethyl-3-(3-methylbut-2-enylidene)-1H-pyrrolo[2,3-b]pyridin-2(3H)-one], the cytotoxicity at 30 µM in experiment [1] (MCF7, MCF-7, 30 μM, 48 h) was 6.6%; in experiment [2] (PANC-1, 30 μM, 48 h) it was 37.5%.

Turning to `COc1cc(/C=C/C=C2\C(=O)Nc3nc(C)c(O)c(C)c32)ccc1O` [Compound I-04, (Z)-5-Hydroxy-3-((E)-3-(4-hydroxy-3-methoxyphenyl)allylidene)-4,6-dimethyl-1H-pyrrolo[2,3-b]pyridin-2(3H)-one], the cytotoxicity at 30 µM in experiment [1] (MCF7, MCF-7, 30 μM, 48 h) amounted to 6.9%; in experiment [2] (PANC-1, 30 μM, 48 h), 24.4%.

For `Cc1nc2c(c(C)c1O)/C(=C/C1CCCCC1)C(=O)N2` [Compound I-05, (Z)-3-(Cyclohexylmethylene)-5-hydroxy-4,6-dimethyl-1H-pyrrolo[2,3-b]pyridin-2(3H)-one], the cytotoxicity at 30 µM in experiment [1] (MCF7, MCF-7, 30 μM, 48 h) is 10%; in experiment [2] (PANC-1, 30 μM, 48 h) it was 49%.

On to `Cc1ccc(/C=C2\C(=O)Nc3nc(C)c(O)c(C)c32)cc1` [Compound I-06, (Z)-5-Hydroxy-4,6-dimethyl-3-(4-methylbenzylidene)-1H-pyrrolo[2,3-b]pyridin-2(3H)-one], for which the cytotoxicity at 30 µM in experiment [1] (MCF7, MCF-7, 30 μM, 48 h) came to 32.3%; in experiment [2] (PANC-1, 30 μM, 48 h) it was 29.1%.

With `Cc1nc2c(c(C)c1O)/C(=C/c1ccccc1[N+](=O)[O-])C(=O)N2` [Compound I-07, (Z)-5-Hydroxy-4,6-dimethyl-3-(2-nitrobenzylidene)-1H-pyrrolo[2,3-b]pyridin-2(3H)-one], the cytotoxicity at 30 µM in experiment [1] (MCF7, MCF-7, 30 μM, 48 h) turned out to be 23.9%; in experiment [2] (PANC-1, 30 μM, 48 h) it was 27.8%.

For the compound `Cc1nc2c(c(C)c1O)/C(=C/c1ccc([N+](=O)[O-])cc1)C(=O)N2` [Compound I-08, (Z)-5-Hydroxy-4,6-dimethyl-3-(4-nitrobenzylidene)-1H-pyrrolo[2,3-b]pyridin-2(3H)-one], the cytotoxicity at 30 µM in experiment [1] (MCF7, MCF-7, 30 μM, 48 h) was 16.3%; in experiment [2] (PANC-1, 30 μM, 48 h), 32.5%.

In the case of `Cc1nc2c(c(C)c1O)/C(=C/c1ccc(F)cc1)C(=O)N2` [Compound I-09, (Z)-3-(4-Fluorobenzylidene)-5-hydroxy-4,6-dimethyl-1H-pyrrolo[2,3-b]pyridin-2(3H)-one], the cytotoxicity at 30 µM turned out to be 48.3% in experiment [1] (MCF7, MCF-7, 30 μM, 48 h) and 51.8% in experiment [2] (PANC-1, 30 μM, 48 h).

As to `Cc1nc2c(c(C)c1O)/C(=C/c1ccc(Cl)cc1)C(=O)N2` [Compound I-10, (Z)-3-(4-Chlorobenzylidene)-5-hydroxy-4,6-dimethyl-1H-pyrrolo[2,3-b]pyridin-2(3H)-one], the cytotoxicity at 30 µM came to 51.7% in experiment [1] (MCF7, MCF-7, 30 μM, 48 h) and 44.9% in experiment [2] (PANC-1, 30 μM, 48 h).

With `Cc1nc2c(c(C)c1O)/C(=C/c1ccccc1O)C(=O)N2` [Compound I-11, (Z)-5-Hydroxy-3-(2-hydroxybenzylidene)-4,6-dimethyl-1H-pyrrolo[2,3-b]pyridin-2(3H)-one], the cytotoxicity at 30 µM was found to be 29.2% in experiment [1] (MCF7, MCF-7, 30 μM, 48 h) and 42% in experiment [2] (PANC-1, 30 μM, 48 h).

On to `COc1ccccc1/C=C1\C(=O)Nc2nc(C)c(O)c(C)c21` [Compound I-12, (Z)-5-hydroxy-3-(2-methoxybenzylidene)-4,6-dimethyl-1H-pyrrolo[2,3-b]pyridin-2(3H)-one], for which the cytotoxicity at 30 µM in experiment [1] (MCF7, MCF-7, 30 μM, 48 h) came out at 30.7%; in experiment [2] (PANC-1, 30 μM, 48 h), 10.2%.

Take `COc1cccc(/C=C2\C(=O)Nc3nc(C)c(O)c(C)c32)c1` [Compound I-13, (Z)-5-Hydroxy-3-(3-methoxybenzylidene)-4,6-dimethyl-1H-pyrrolo[2,3-b]pyridin-2(3H)-one]: the cytotoxicity at 30 µM in experiment [1] (MCF7, MCF-7, 30 μM, 48 h) is 29.6%; in experiment [2] (PANC-1, 30 μM, 48 h), 46.4%.

On to `COc1ccc(/C=C2\C(=O)Nc3nc(C)c(O)c(C)c32)cc1` [Compound I-14, (Z)-5-Hydroxy-3-(4-methoxybenzylidene)-4,6-dimethyl-1H-pyrrolo[2,3-b]pyridin-2(3H)-one], for which the cytotoxicity at 30 µM in experiment [1] (MCF7, MCF-7, 30 μM, 48 h) was determined as 23.9%; in experiment [2] (PANC-1, 30 μM, 48 h) it was 36.3%.

In the case of `COc1cc(/C=C2\C(=O)Nc3nc(C)c(O)c(C)c32)cc(OC)c1OC` [Compound I-16, (Z)-5-Hydroxy-4,6-dimethyl-3-(3,4,5-trimethoxybenzylidene)-1H-pyrrolo[2,3-b]pyridin-2(3H)-one], the cytotoxicity at 30 µM was 41.2% in experiment [1] (MCF7, MCF-7, 30 μM, 48 h) and 40.6% in experiment [2] (PANC-1, 30 μM, 48 h).

Turning to `Cc1nc2c(c(C)c1O)/C(=C/c1ccc3ccccc3c1)C(=O)N2` [Compound I-20, (Z)-5-Hydroxy-4,6-dimethyl-3-(naphthalen-2-ylmethylene)-1H-pyrrolo[2,3-b]pyridin-2(3H)-one], the cytotoxicity at 30 µM in experiment [1] (MCF7, MCF-7, 30 μM, 48 h) worked out at 30.5%; in experiment [2] (PANC-1, 30 μM, 48 h), 28.9%.

On to `Cc1nc2c(c(C)c1O)/C(=C/c1ccccn1)C(=O)N2` [Compound I-21, (Z)-5-Hydroxy-4,6-dimethyl-3-(pyridin-2-ylmethylene)-1H-pyrrolo[2,3-b]pyridin-2(3H)-one], for which the cytotoxicity at 30 µM in experiment [1] (MCF7, MCF-7, 30 μM, 48 h) worked out at 28.1%; in experiment [2] (PANC-1, 30 μM, 48 h), 29.2%.

Turning to `Cc1nc2c(c(C)c1O)/C(=C/c1cccc3[nH]ccc13)C(=O)N2` [Compound I-25, (Z)-3-((1H-Indol-4-yl)methylene)-5-hydroxy-4,6-dimethyl-1H-pyrrolo[2,3-b]pyridin-2(3H)-one], the cytotoxicity at 30 µM in experiment [1] (MCF7, MCF-7, 30 μM, 48 h) amounted to 14.5%; in experiment [2] (PANC-1, 30 μM, 48 h), 32.3%.

As for `Cc1nc2c(c(C)c1O)/C(=C/c1c[nH]c3ccccc13)C(=O)N2` [Compound I-26, (Z)-3-((1H-Indol-3-yl)methylene)-5-hydroxy-4,6-dimethyl-1H-pyrrolo[2,3-b]pyridin-2(3H)-one], the cytotoxicity at 30 µM is 2.4% in experiment [1] (MCF7, MCF-7, 30 μM, 48 h) and 17.1% in experiment [2] (PANC-1, 30 μM, 48 h).

As for `Cc1nc2c(c(C)c1O)/C(=C/c1ccco1)C(=O)N2` [Compound I-27, (Z)-3-(Furan-2-ylmethylene)-5-hydroxy-4,6-dimethyl-1H-pyrrolo[2,3-b]pyridin-2(3H)-one], the cytotoxicity at 30 µM was found to be 31.5% in experiment [1] (MCF7, MCF-7, 30 μM, 48 h) and 16.4% in experiment [2] (PANC-1, 30 μM, 48 h).

`Cc1nc2c(c(C)c1O)/C(=C/c1cccs1)C(=O)N2` [Compound I-29, (Z)-5-Hydroxy-4,6-dimethyl-3-(thiophen-2-ylmethylene)-1H-pyrrolo[2,3-b]pyridin-2(3H)-one]: the cytotoxicity at 30 µM in experiment [1] (MCF7, MCF-7, 30 μM, 48 h) came out at 57.8%; in experiment [2] (PANC-1, 30 μM, 48 h) it was 42.2%.

`Cc1ccsc1/C=C1\C(=O)Nc2nc(C)c(O)c(C)c21` [Compound I-30, (Z)-5-Hydroxy-4,6-dimethyl-3-((3-methylthiophen-2-yl)methylene)-1H-pyrrolo[2,3-b]pyridin-2(3H)-one]: the cytotoxicity at 30 µM in experiment [1] (MCF7, MCF-7, 30 μM, 48 h) is 59%; in experiment [2] (PANC-1, 30 μM, 48 h) it was 47.2%.

Regarding `Cc1nc2c(c(C)c1O)/C(=C/c1ncc[nH]1)C(=O)N2` [Compound I-33, (Z)-3-((1H-Imidazol-2-yl)methylene)-5-hydroxy-4,6-dimethyl-1H-pyrrolo[2,3-b]pyridin-2(3H)-one], the cytotoxicity at 30 µM came out at 2.6% in experiment [1] (MCF7, MCF-7, 30 μM, 48 h) and 7.2% in experiment [2] (PANC-1, 30 μM, 48 h).

As to `Cc1nc2c(c(C)c1O)/C(=C/c1c[nH]cn1)C(=O)N2` [Compound I-34, (Z)-3-((1H-Imidazol-4-yl)methylene)-5-hydroxy-4,6-dimethyl-1H-pyrrolo[2,3-b]pyridin-2(3H)-one], the cytotoxicity at 30 µM was 4.1% in experiment [1] (MCF7, 48 h) and 4.5% in experiment [2] (PANC-1, 48 h).

Turning to `Cc1nc2c(c(C)c1O)/C(=C/c1nccs1)C(=O)N2` [Compound I-35, (Z)-5-Hydroxy-4,6-dimethyl-3-(thiazol-2-ylmethylene)-1H-pyrrolo[2,3-b]pyridin-2(3H)-one], the cytotoxicity at 30 µM amounted to 5.6% in experiment [1] (MCF7, MCF-7, 30 μM, 48 h) and 9% in experiment [2] (PANC-1, 30 μM, 48 h).
